Results reported in patent US10945435B2, “Imidazopyrimidine derivatives with sulfur containing phenyl and pyridyl substituents” (SYNGENTA PARTICIPATIONS AG, priority 2017, dated 2021).

Assays:
[1] = test system: Myzus persicae (Green Peach Aphid); assay: Example B10 Myzus persicae systemic activity; format: in vivo; details: 144 h, test rate of 24 ppm, roots of infested pea seedlings in test solution, 6 days
Experimental: Myzus persicae (Green Peach Aphid). Systemic Activity
Roots of pea seedlings infested with an aphid population of mixed ages were placed directly into aqueous test solutions prepared from 10,000 DMSO stock solutions. The samples were assessed for mortality 6 days after placing seedlings into test solutions.

[2] = test system: Frankliniella occidentalis (Western Flower Thrips); assay: Example B8 Frankliniella occidentalis feeding/contact activity; format: in vivo; details: foliar, 168 h, application rate of 200 ppm, mixed-age population on sprayed sunflower leaf discs, 7 days after infestation
Experimental: Frankliniella occidentalis (Western Flower Thrips): Feeding/Contact Activity
Sunflower leaf discs were placed on agar in 24-well microtiter plates and sprayed with aqueous test solutions prepared from 10,000 DMSO stock solutions. After drying the leaf discs were infested with a Frankliniella population of mixed ages. The samples were assessed for mortality 7 days after infestation.

[3] = test system: Euschistus heros (Neotropical Brown Stink Bug); assay: Example B6 Euschistus heros growth inhibition; format: in vivo; details: 120 h, application rate of 200 ppm, N2 nymphs on sprayed soybean leaves, 5 days after infestation
Experimental: Euschistus heros (Neotropical Brown Stink Bug): Growth Inhibition
Soybean leaves on agar in 24-well microtiter plates were sprayed with aqueous test solutions prepared from 10,000 ppm DMSO stock solutions. After drying the leaves were infested with N2 nymphs. The samples were assessed for growth inhibition in comparison to untreated samples 5 days after infestation. Control of Euschistus heros by a test sample is given when the growth inhibition is higher than the untreated sample.

[4] = test system: Bemisia tabaci (Cotton White Fly); assay: Example B1 Bemisia tabaci feeding/contact activity; format: in vivo; details: foliar, 144 h, application rate of 200 ppm, adult white flies on sprayed cotton leaf discs, 6 days after incubation
Experimental: Bemisia tabaci (Cotton White Fly): Feeding/Contact Activity
Cotton leaf discs were placed on agar in 24-well microtiter plates and sprayed with aqueous test solutions prepared from 10,000 ppm DMSO stock solutions. After drying the leaf discs were infested with adult white flies. The samples were checked for mortality 6 days after incubation.

[5] = test system: Euschistus heros (Neotropical Brown Stink Bug); assay: Example B5 Euschistus heros mortality and growth inhibition; format: in vivo; details: 120 h, application rate of 200 ppm, N2 nymphs on sprayed soybean leaves, 5 days after infestation, read-out: effect in at least one of the two categories (mortality or growth inhibition)
Experimental: Euschistus heros (Neotropical Brown Stink Bug)
Soybean leaves on agar in 24-well microtiter plates were sprayed with aqueous test solutions prepared from 10,000 ppm DMSO stock solutions. After drying the leaves were infested with N2 nymphs. The samples were assessed for mortality and growth inhibition in comparison to untreated samples 5 days after infestation.

[6] = test system: Myzus persicae (Green Peach Aphid); assay: Example B9 Myzus persicae feeding/contact activity; format: in vivo; details: foliar, 144 h, application rate of 200 ppm, mixed-age aphids on sprayed sunflower leaf discs, 6 days after infestation
Experimental: Myzus persicae (Green Peach Aphid): Feeding/Contact Activity
Sunflower leaf discs were placed onto agar in a 24-well microtiter plate and sprayed with aqueous test solutions prepared from 10,000 ppm DMSO stock solutions. After drying, the leaf discs were infested with an aphid population of mixed ages. The samples were assessed for mortality 6 days after infestation.

[7] = test system: Euschistus heros (Neotropical Brown Stink Bug); assay: Example B7 Euschistus heros feeding/contact activity; format: in vivo; details: 120 h, application rate of 200 ppm, N2 nymphs on sprayed soybean leaves, 5 days after infestation
Experimental: Euschistus heros (Neotropical Brown Stink Bug): Feeding/Contact Activity
Soybean leaves on agar in 24-well microtiter plates were sprayed with aqueous test solutions prepared from 10,000 ppm DMSO stock solutions. After drying the leaves were infested with N2 nymphs. The samples were assessed for mortality 5 days after infestation.

[8] = test system: Spodoptera littoralis (Egyptian Cotton Leaf Worm); assay: Example B14 Spodoptera littoralis anti-feeding activity; format: in vivo; details: foliar, 72 h, application rate of 200 ppm, L1 larvae on sprayed cotton leaf discs, 3 days after infestation, read-out: control (anti-feeding effect)
Experimental: Spodoptera littoralis (Egyptian Cotton Leaf Worm): Anti-Feeding Activity
Cotton leaf discs were placed onto agar in 24-well microtiter plates and sprayed with aqueous test solutions prepared from 10,000 ppm DMSO stock solutions. After drying the leaf discs were infested with five L1 larvae. The samples were assessed for anti-feeding effect in comparison to untreated samples 3 days after infestation. Control of Spodoptera littoralis by a test sample is given when the anti-feedant effect is higher than the untreated sample.

[9] = test system: Plutella xylostella (Diamond Back Moth); assay: Example B13 Plutella xylostella mortality and growth inhibition; format: in vivo; details: 120 h, application rate of 200 ppm, L2 larvae on treated artificial diet, 5 days after infestation, read-out: effect in at least one of the two categories (mortality or growth inhibition)
Experimental: Plutella xylostella (Diamond Back Moth)
(§1) 24-well microtiter plates with artificial diet were treated with aqueous test solutions prepared from 10,000 ppm DMSO stock solutions by pipetting. After drying, the plates were infested with L2 larvae (10 to 15 per well). The samples were assessed for mortality and growth inhibition in comparison to untreated samples 5 days after infestation.

[10] = test system: Plutella xylostella (Diamond Back Moth); assay: Example B12 Plutella xylostella feeding/contact activity; format: in vivo; details: 120 h, application rate of 200 ppm, L2 larvae on treated artificial diet, 5 days after infestation
Experimental: Plutella xylostella (Diamond Back Moth): Feeding/Contact Activity
24-well microtiter plates with artificial diet were treated with aqueous test solutions prepared from 10,000 ppm DMSO stock solutions by pipetting. After drying, the plates were infested with L2 larvae (10 to 15 per well). The samples were assessed for mortality 5 days after infestation.

[11] = test system: Diabrotica balteata (Corn Root Worm); assay: Example B2 Diabrotica balteata mortality and growth inhibition; format: in vivo; details: 96 h, application rate of 200 ppm, L2 larvae on sprayed maize sprouts, 4 days after infestation, read-out: effect in at least one of the two categories (mortality or growth inhibition)
Experimental: Diabrotica balteata (Corn Root Worm)
as §1, with “Maize sprouts placed onto an agar layer in 24-well” for “24-well”, “plates” for “plates with artificial diet”, “spraying.” for “pipetting.”, “(6” for “(10”, “10” for “15”, “4” for “5”

[12] = test system: Diabrotica balteata (Corn Root Worm); assay: Example B4 Diabrotica balteata mortality; format: in vivo; details: 96 h, application rate of 200 ppm, L2 larvae on sprayed maize sprouts, 4 days after infestation
Experimental: (§2) Diabrotica Balteata (Corn Root Worm):
(§3) Maize sprouts placed onto an agar layer in 24-well microtiter plates were treated with aqueous test solutions prepared from 10,000 ppm DMSO stock solutions by spraying. After drying, the plates were infested with L2 larvae (6 to 10 per well). The samples were assessed for mortality 4 days after infestation.

[13] = test system: Spodoptera littoralis (Egyptian Cotton Leaf Worm); assay: Example B16 Spodoptera littoralis feeding/contact activity; format: in vivo; details: foliar, 72 h, application rate of 200 ppm, L1 larvae on sprayed cotton leaf discs, 3 days after infestation
Experimental: Spodoptera littoralis (Egyptian Cotton Leaf Worm): Feeding/Contact Activity
Cotton leaf discs were placed onto agar in 24-well microtiter plates and sprayed with aqueous test solutions prepared from 10,000 ppm DMSO stock solutions. After drying the leaf discs were infested with five L1 larvae. The samples were assessed for mortality 3 days after infestation.

[14] = test system: Diabrotica balteata (Corn Root Worm); assay: Example B3 Diabrotica balteata growth inhibition; format: in vivo; details: 96 h, application rate of 200 ppm, L2 larvae on sprayed maize sprouts, 4 days after infestation
Experimental: as §2
as §3, with “growth inhibition in comparison to untreated samples” for “mortality”, “infestation. Control of Diabrotica balteata by a test sample is given when the growth inhibition is higher than in the untreated sample.” for “infestation.”

[15] = test system: Plutella xylostella (Diamond Back Moth); assay: Example B11 Plutella xylostella growth inhibition activity; format: in vivo; details: 120 h, application rate of 200 ppm, L2 larvae on treated artificial diet, 5 days after infestation
Experimental: Plutella xylostella (Diamond Back Moth): Growth Inhibition Activity
as §1, with “for” for “for mortality and”, “infestation. Control of Plutella xylostella by a test sample is given when the growth inhibition is higher than the untreated sample.” for “infestation.”

Row | Structure (SMILES) | melting point | mortality at 24 ppm [1] | mortality at 200 ppm [4] | percent effect (mortality or growth inhibition) at 200 ppm [5] | mortality at 200 ppm [6] | mortality at 200 ppm [7] | pest or weed control at 200 ppm [8] | percent effect (mortality or growth inhibition) at 200 ppm [9] | mortality at 200 ppm [10] | percent effect (mortality or growth inhibition) at 200 ppm [11] | mortality at 200 ppm [12] | mortality at 200 ppm [13] | other results
1 | CCS(=O)(=O)c1cc(OCS(C)(=O)=O)cnc1-c1cn2cnc(C(F)(F)C(F)(F)F)cc2n1 [Compound P26, 2-[3-ethylsulfonyl-5-(methylsulfonylmethoxy)-2-pyridyl]-7-(1,1,2,2,2-pentafluoroethyl)imidazo[1,2-c]pyrimidine] | 248 to 250 °C | – | – | – | – | – | – | – | – | – | – | – | –
2 | CCS(=O)(=O)c1cc(OC[S+](C)[O-])cnc1-c1cn2cnc(C(F)(F)F)cc2n1 (centres unmarked) [Compound P22, 2-[3-ethylsulfonyl-5-(methylsulfinylmethoxy)-2-pyridyl]-7-(trifluoromethyl)imidazo[1,2-c]pyrimidine] | – | ≥ 80% | ≥ 80% | ≥ 80% | ≥ 80% | ≥ 80% | – | – | – | – | – | – | mortality at 200 ppm [2]: ≥ 80%; inhibition at 200 ppm [3]: ≥ 80%
3 | CCS(=O)(=O)c1cc(OCC(C)C)cnc1-c1cn2cnc(C(F)(F)F)cc2n1 [Compound P14, 2-(3-ethylsulfonyl-5-isobutoxy-2-pyridyl)-7-(trifluoromethyl)imidazo[1,2-c]pyrimidine] | – | – | – | ≥ 80% | ≥ 80% | ≥ 80% | ≥ 80% | ≥ 80% | ≥ 80% | ≥ 80% | ≥ 80% | ≥ 80% | inhibition at 200 ppm [3]: ≥ 80%
4 | CCS(=O)(=O)c1cc(OCC(F)(F)F)cnc1-c1nc2cc(C(F)(F)F)ncn2c1Br [Compound P25, 3-bromo-2-[3-ethylsulfonyl-5-(2,2,2-trifluoroethoxy)-2-pyridyl]-7-(trifluoromethyl)imidazo[1,2-c]pyrimidine] | 86 to 88 °C | – | – | – | – | – | – | – | – | – | – | – | –
5 | CCS(=O)(=O)c1cc(OCC(F)F)cnc1-c1cn2cnc(C(F)(F)F)cc2n1 [Compound P8, 2-[5-(2,2-difluoroethoxy)-3-ethylsulfonyl-2-pyridyl]-7-(trifluoromethyl)imidazo[1,2-c]pyrimidine] | – | ≥ 80% | ≥ 80% | ≥ 80% | ≥ 80% | ≥ 80% | ≥ 80% | ≥ 80% | ≥ 80% | ≥ 80% | ≥ 80% | ≥ 80% | mortality at 200 ppm [2]: ≥ 80%; inhibition at 200 ppm [14]: ≥ 80%; inhibition at 200 ppm [15]: ≥ 80%
6 | CCS(=O)(=O)c1cc(OCCS(C)(=O)=O)cnc1-c1cn2cnc(C(F)(F)F)cc2n1 [Compound P24, 2-[3-ethylsulfonyl-5-(2-methylsulfonylethoxy)-2-pyridyl]-7-(trifluoromethyl)imidazo[1,2-c]pyrimidine] | 209 to 210 °C | – | – | – | – | – | – | – | – | – | – | – | –
7 | CCS(=N)(=O)c1cc(OC(C)(C)C#N)cnc1-c1cn2cnc(C(F)(F)F)cc2n1 (centres unmarked) [Compound P20, 2-[[5-(ethylsulfonimidoyl)-6-[7-(trifluoromethyl)imidazo[1,2-c]pyrimidin-2-yl]-3-pyridyl]oxy]-2-methyl-propanenitrile] | – | ≥ 80% | ≥ 80% | – | ≥ 80% | – | ≥ 80% | ≥ 80% | ≥ 80% | ≥ 80% | ≥ 80% | ≥ 80% | inhibition at 200 ppm [14]: ≥ 80%; inhibition at 200 ppm [15]: ≥ 80%
8 | CCS(=O)(=O)c1cc(O)cnc1-c1nc2cc(C(F)(F)F)ncn2c1Br [Compound P27, 6-[3-bromo-7-(trifluoromethyl)imidazo[1,2-c]pyrimidin-2-yl]-5-ethylsulfonyl-pyridin-3-ol] | 230 to 234 °C | – | – | – | – | – | – | – | – | – | – | – | –
9 | CCS(=O)(=O)c1cc(O)cnc1-c1cn2cnc(C(F)(F)F)cc2n1 [Compound P10, 5-ethylsulfonyl-6-[7-(trifluoromethyl)imidazo[1,2-c]pyrimidin-2-yl]pyridin-3-ol] | 229 to 232 °C | – | – | – | – | – | – | – | – | – | – | – | –
